Four molecules from ChEMBL document CHEMBL1914362, “Highlights of marine invertebrate-derived biosynthetic products: their biomedical potential and possible production by microbial associants” (Bioorg Med Chem, 2011) can be followed below.

The subject of test [1] is HT-29. Put plainly: Cytotoxicity against human HT-29 cells. Format: functional, cell-based.
The test system of test [2] is HCT-116. Put plainly: Cytotoxicity against human HCT116 cells. Format: functional, cell-based.
Test [3] can be described thus: Irreversible inhibition of 20S proteasome.

In test [1], `C=CC(C)(C)c1[nH]cnc1/C=C1\NC(=O)[C@H](Cc2ccccc2)NC1=O` displayed an IC50 of 440 nM.

Regarding `C[C@@]12OC(=O)[C@]1([C@@H](O)[C@@H]1C=CCCC1)NC(=O)[C@@H]2CCCl` [MARIZOMIB], in test [2], the IC50 was determined as 35 nM. Consider `CC(C)[C@H](O)[C@@]12NC(=O)[C@H](C)[C@@H]1OC2=O` [OMURALIDE], for which the IC50 in test [3] stood at 49 nM. Take `CC(C)(C)c1[nH]cnc1/C=c1\[nH]c(=O)/c(=C/c2ccccc2)[nH]c1=O` [PLINABULIN]: in test [1], the 50% inhibitory concentration (IC50) was 18 nM.

In general, IC50 refers to the point on the concentration scale where inhibition reaches its midpoint. Read a high IC50 as a need for much substance.
